Assay results published in article PMC6983514 (British Journal of Clinical Pharmacology, 2020).
Several values for one entry are separate records, joined by “and”; a condition that tells them apart may be missing. Identical values can stand only once. Like-named read-outs stand apart in the source and are kept apart here.

How the values were obtained:
[1] = Genotype-stratified analysis: loop diuretic association with endpoints by ABCG2 rs2231142 (Q141K); assay type: in vivo, human; conditions: adjusted
Experimental: (§1) Exploratory genotype‐stratified analyses were carried out to further assess key identified drug–drug interactions. Specifically, the adjusted association of PPIs with endpoints was determined following cohort stratification by CYP2C19 predicted metaboliser status, because PPIs are metabolised by CYP2C19.22, 23 CYP2C19 was stratified by *2 (rs4244285; directly genotyped) and *17 (rs12248560; imputed) diplotypes into: extensive (EM, *1/*1), intermediate (IM, *1/*2 or *2/*17), poor (PM, *2/*2), rapid (RM, *1/*17) and ultra‐rapid metabolisers (UM, *17/*17). Due to the small number of PM (n = 10) and UM (n = 24) patients, PMs were combined with IMs, and UMs with RMs, for analysis. […] Secondly, the impact of https://www.guidetopharmacology.org/GRAC/ObjectDisplayForward?objectId=792 rs2231142 (Q141K; imputed) on the adjusted associations of loop diuretics with the endpoints was considered.
(§2) The sensitivity and genotype‐stratified analyses were only conducted on those endpoints where the perpetrator comedication of interest had been included in the endpoint's main analysis model, and P < .05 was taken to indicate significance. All statistical testing was carried out in the R computing environment,26 except for the secondary stepwise analysis that was undertaken in IBM SPSS version 22.0 (IBM Corp, Armonk, NY, USA); boxplots were produced in GraphPad Prism (version 5.00 for Windows: GraphPad Software Inc., San Diego, USA).

[2] = Genotype-stratified analysis: PPI association with endpoints by CYP2C19 predicted metaboliser status; assay type: in vivo, human; conditions: adjusted
Experimental: as §1, §2

[3] = Main analysis: all subsets multivariable linear regression with BIC model averaging of clinical factors/comedications on ATV analyte levels, ratios and sum total; assay type: in vivo, human; conditions: log10 transformed plasma concentration, model averaged coefficient
Excerpt: All variables were considered in model selection (see below) except hypertension, hyperlipidaemia, and prior CVD.
Prior to modelling, all endpoints were log10 transformed to normalise the distribution of (observed) residuals and optimise homoscedasticity.
Third, the derived models were ranked according to the Bayesian information criterion (BIC), which is more conservative than the corrected Akaike information criterion because BIC carries a larger penalty for increasing model complexity.19 Fourth, all models with a BIC within 2 of the model with the lowest BIC (BIC Δ < 2) underwent model averaging to produce model averaged (unstandardised) coefficients and standard errors for all the covariates included in this set of models, to enable multimodel inferences. The model selection constraint of Δ < 2 was chosen because the empirical evidence supporting each of these models is considered essentially equivalent.19 Conditional averaging was used, and so for a given covariate, its coefficient and standard error were averaged from only those models with BIC Δ < 2 that contained the covariate.20 This approach was taken because of the interest in assessing the relationship between individual covariates and the endpoints, with overall model predictive capability of secondary importance.21 The relative importance of each of the selected covariates to the endpoint was assessed by summing the BIC‐derived model weight for all models that underwent model averaging and contained the covariate. The P‐value for each covariate in the final model is provided for reference only. The utility of the final produced model for describing the observed variation in the endpoint was assessed using the unadjusted R^2 value. This process was undertaken for all endpoints. The above described covariate selection and model averaging was carried out using the R statistical package, MuMIn. 20

[4] = test system: 3‐hydroxy‐3‐methyl‐glutaryl‐coenzyme A reductase (HMGCR); conditions: background statement in introduction; cited from earlier work
[5] = Plasma concentrations of ATV and metabolites by HPLC-MS/MS in NSTE-ACS patients at V2 (1 month); assay type: in vivo, human; conditions: for concentration at […] / concentration at 1 month: human, plasma, oral; for concentration at […]: plasma at V2, median […] since last ATV (estimated), read-out: Conc (ng/mL), median (IQR); for concentration at 1 month: median ATV concentration, unadjusted
Excerpt: This investigation harnessed the Pharmacogenetics of Acute Coronary Syndrome (PhACS) study, described previously.13 Briefly, PhACS was a UK multicentre prospective observational study that recruited 1470 eligible patients hospitalised with an NSTE‐ACS between 2008–2012 and followed them up at 1 (V2) and 12 (V3) months. Demographic, comorbidity and prescription information was collected at baseline; drug use, drug adherence, and new clinical events were captured during follow up. PhACS participants were genotyped using the Illumina HumanOmniExpressExome‐8 v1.0 BeadChip at Edinburgh Genomics (Roslin Institute, Scotland).
Briefly, 50‐μL plasma samples were first mixed with 20 μL of a composite internal standard solution containing a deuterated internal standard for each analyte, and then diluted further by addition of 180 μL 100% acetonitrile containing 0.3% acetic acid. Following centrifugation, the supernatant was diluted 1:2 in water and a 5‐μL aliquot injected for analysis. Analytes were separated using a 2.7‐μm Halo C18 column (50 × 2.1 mm ID, 90 Å, Hichrom Limited, Reading, UK, part number: 92812–402) with gradient elution, housed within a Shimadzu Nexera X2 modular system (Kyoto, Japan). Analytes were detected in low mass positive ionisation mode using multiple reaction monitoring (Sciex triple quadrupole 6500 QTRAP mass spectrometer with a Turbo electrospray source, AB Sciex, Warrington, UK). […] Calibration and quality control (QC) samples were prepared in pooled healthy human volunteer K3 EDTA plasma (Sera Laboratories International, West Sussex, UK).

[6] = cited from earlier work
[7] = test system: breast cancer resistance protein (BCRP, encoded by ABCG2); conditions: cited from earlier work
[8] = ABCG2 rs2231142 WT (n = 435), on LD n = 74
[9] = ABCG2 rs2231142 variant carrier (n = 136), on LD n = 22
[10] = CYP2C19 EM (n = 233), on PPI n = 88
[11] = CYP2C19 PM/IM (n = 152), on PPI n = 58
[12] = CYP2C19 RM/UM (n = 186), on PPI n = 83

Compound | B (SE), Loop diuretic on analyte level [1, 8] | B (SE), Loop diuretic on analyte level [1, 9] | B (SE), Proton pump inhibitor on analyte level [2, 10] | B (SE), Proton pump inhibitor on analyte level [2, 11] | B (SE), Proton pump inhibitor on analyte level [2, 12] | B (SE), ATV dose on analyte level [3] | B (SE), Age on analyte level [3] | B (SE), Body mass index on analyte level [3] | B (SE), Loop diuretic on analyte level [3] | B (SE), Proton pump inhibitor on analyte level [3] | B (SE), Sample storage duration on analyte level [3] | B (SE), Time since last ATV on analyte level [3] | activity against HMGCR [4] | concentration at […] ([5]; 40 mg daily, 40 mg ATV daily) | concentration at […] ([5]; 80 mg daily, 80 mg ATV daily) | other results
CC(C)c1c(C(=O)Nc2ccccc2O)c(-c2ccccc2)c(-c2ccc(F)cc2)n1CCC1CC(O)CC(=O)O1 (centres unmarked) [2‐OH ATV L] | 0.102 (0.040) | 0.044 (0.075) | 0.065 (0.039) | 0.018 (0.057) | 0.199 (0.042) | 0.215 (0.051) | 0.006 (0.001) | −0.006 (0.002) | 0.084 (0.035) | 0.106 (0.026) | 0.0001 (0.00003) | −0.0006 (0.0001) | inactive | 4.24 ng/mL | 7 ng/mL | B (SE), Hepatic disease on analyte level [3]: −0.289 (0.134)
CC(C)c1c(C(=O)Nc2ccccc2O)c(-c2ccccc2)c(-c2ccc(F)cc2)n1CC[C@@H](O)C[C@@H](O)CC(=O)O [2‐OH ATV] | 0.072 (0.039) | −0.051 (0.077) | 0.045 (0.038) | 0.032 (0.050) | – | 0.212 (0.048) | 0.007 (0.001) | −0.006 (0.002) | 0.074 (0.033) | 0.062 (0.024) | −0.0001 (0.00003) | −0.0007 (0.0001) | – | 5.35 ng/mL | 6.93 ng/mL | B (SE), Smoking on analyte level ([3]; current vs previous/never): −0.076 (0.028); B (SE), Chronic kidney disease on analyte level [3]: 0.111 (0.051); B (SE), Diabetes mellitus on analyte level [3]: 0.079 (0.031)
CC(C)c1c(C(=O)Nc2ccc(O)cc2)c(-c2ccccc2)c(-c2ccc(F)cc2)n1CCC1CC(O)CC(=O)O1 (centres unmarked) [4‐OH ATV L] | – | – | – | – | – | – | – | – | – | – | – | – | inactive | – | – | –
CC(C)c1c(C(=O)Nc2ccc(O)cc2)c(-c2ccccc2)c(-c2ccc(F)cc2)n1CC[C@@H](O)C[C@@H](O)CC(=O)O [4‐OH ATV] | – | – | – | – | – | – | – | – | – | – | – | – | inhibit | – | – | –
CC(C)c1c(C(=O)Nc2ccccc2)c(-c2ccccc2)c(-c2ccc(F)cc2)n1CCC1CC(O)CC(=O)O1 (centres unmarked) [ATV L] | 0.149 (0.048) | 0.077 (0.089) | 0.076 (0.050) | 0.084 (0.070) | 0.232 (0.053) | 0.222 (0.064) | – | −0.006 (0.003) | 0.121 (0.043) | 0.139 (0.033) | 0.0002 (0.00004) | −0.0007 (0.0001) | – | 2.51 ng/mL | 3.97 ng/mL | B (SE), Amiodarone on analyte level [3]: 0.320 (0.142); B (SE), Sex (F vs M) on analyte level [3]: −0.097 (0.038)
CC(C)c1c(C(=O)Nc2ccccc2)c(-c2ccccc2)c(-c2ccc(F)cc2)n1CC[C@@H](O)C[C@@H](O)CC(=O)O [ATV, atorvastatin, reference compound] | 0.121 (0.044) | 0.041 (0.086) | 0.052 (0.045) | 0.046 (0.061) | 0.162 (0.050) | 0.153 (0.058) | 0.004 (0.001) | – | 0.099 (0.040) | 0.093 (0.030) | – | −0.001 (0.0001) | inhibit | 3.96 ng/mL | 5.22 ng/mL | fraction of an ATV dose excreted through the kidneys [6]: < 2%; B (SE), Amiodarone on analyte level [3]: 0.282 (0.129); concentration at 1 month ([5]; patients not on a PPI): 4.9 ng/mL; concentration at 1 month ([5]; patients not on a loop diuretic): 4.9 ng/mL; concentration at 1 month ([5]; patients on a PPI): 5.6 ng/mL; concentration at 1 month ([5]; patients on a loop diuretic): 6.8 ng/mL; increase in median ATV concentration ([5]; with PPIs vs without): 14% and ~ 14%; increase in median ATV concentration ([5]; with loop diuretics vs without): 38% and ~ 38%
CCCCNc1cc(C(=O)O)cc(S(N)(=O)=O)c1Oc1ccccc1 [bumetanide] | – | – | – | – | – | – | – | – | – | – | – | – | – | – | – | inhibition of BCRP in vitro [7]: inhibit
